Test results from patent US12692238B2, “Substituted pyridazinone herbicides” (FMC CORPORATION, priority 2020, dated 2026).
Where two headings read alike, the source gives them in different places.

Legend:
Format in all cases: in vivo
[1] = test system: blackgrass (Alopecurus myosuroides); test: Test A postemergence, blackgrass; conditions: Alopecurus myosuroides, post-emergence, 240 h, 10 days, read-out: Plant response rating, Blackgrass; for pest or weed control at 31 g/ha: 31 g ai/ha; for pest or weed control at 125 g/ha: 125 g ai/ha
How it was run: (§1)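 Herbicidal response was scored visually after ten greenhouse days, comparing treated pots with untreated ones on a 0–100 control scale. Preemergence application was a directed soil spray; postemergence plants were treated at 2 to 10 cm height.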

[2] = test system: wheat (Triticum aestivum); test: Test A postemergence, wheat; conditions: Triticum aestivum, post-emergence, 240 h, 10 days, read-out: Plant response rating, Wheat; for plant injury at 31 g/ha: 31 g ai/ha, postemergence, 0 to 100 scale (0 no effect, 100 complete control); for plant injury at 125 g/ha: Postemergence, 125 g ai/ha, 0 to 100 scale
How it was run: as §1

rice (Oryza sativa) = test: Test B flooded paddy test, rice; conditions: Oryza sativa; 250 g ai/ha, Flood; visually evaluated after 10 to 14 days; read-out: Plant response rating, Rice (0 to 100 scale where 0 is no effect and 100 is complete control)
How it was run: (§2)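 Visual ratings (0 = no effect to 100 = complete control) were made versus controls 10 to 14 days after treatment. Compounds were added to the floodwater of pots flooded 3 cm above the soil surface when plants reached the 2-leaf stage.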

kochia (Bassia scoparia) = test: Test A postemergence, kochia; conditions: Bassia scoparia, post-emergence, 240 h, 10 days, read-out: Plant response rating, Kochia; for pest or weed control at 31 g/ha: 31 g ai/ha, postemergence, 0 to 100 scale (0 no effect, 100 complete control); for pest or weed control at 125 g/ha: Postemergence, 125 g ai/ha, 0 to 100 scale
How it was run: as §1

[3] = test system: sedge, umbrella (small-flower umbrella sedge, Cyperus difformis); test: Test B flooded paddy test, sedge, umbrella; conditions: Cyperus difformis; 250 g ai/ha, Flood; visually evaluated after 10 to 14 days; read-out: Plant response rating, Sedge, Umbrella (0 to 100 scale where 0 is no effect and 100 is complete control)
How it was run: as §2

[4] = test system: barnyardgrass (Echinochloa crus-galli); test: Test B flooded paddy test, barnyardgrass; conditions: Echinochloa crus-galli; 250 g ai/ha, Flood; visually evaluated after 10 to 14 days; read-out: Plant response rating, Barnyardgrass (0 to 100 scale where 0 is no effect and 100 is complete control)
How it was run: as §2

[5] = test system: barnyardgrass (Echinochloa crus-galli); test: Test A preemergence, barnyardgrass; conditions: 10 days
How it was run: as §1

[6] = test system: galium (catchweed bedstraw, Galium aparine); test: Test A postemergence, galium; conditions: Galium, post-emergence, 240 h, 10 days, read-out: Plant response rating, Galium; for pest or weed control at 31 g/ha: 31 g ai/ha, postemergence, 0 to 100 scale (0 no effect, 100 complete control); for pest or weed control at 125 g/ha: Postemergence, 125 g ai/ha, 0 to 100 scale
How it was run: as §1

[7] = test system: redroot pigweed (Amaranthus retroflexus); test: Test A postemergence, redroot pigweed; conditions: 10 days
How it was run: as §1

[8] = test system: ryegrass, Italian (Italian ryegrass, Lolium multiflorum); test: Test A postemergence, ryegrass, Italian; conditions: Lolium multiflorum, post-emergence, 240 h, 10 days, read-out: Plant response rating, Ryegrass, Italian; for pest or weed control at 31 g/ha: 31 g ai/ha, postemergence, 0 to 100 scale (0 no effect, 100 complete control); for pest or weed control at 125 g/ha: Postemergence, 125 g ai/ha, 0 to 100 scale
How it was run: as §1

corn (Zea mays) = test: Test A postemergence, corn; conditions: Zea mays, post-emergence, 240 h, 10 days; for Corn plant response rating (crop injury, 0 = no effect, 100 = complete kill) at 31 g/ha: 31 g ai/ha; for Corn plant response rating (crop injury, 0 = no effect, 100 = complete kill) at 125 g/ha: 125 g ai/ha
How it was run: as §1

[9] = test system: ryegrass, Italian (Italian ryegrass, Lolium multiflorum); test: Test A preemergence, ryegrass, Italian; conditions: Lolium multiflorum, pre-emergence, 240 h, 0 to 100 scale, 10 days, read-out: Plant response rating, Ryegrass, Italian; for pest or weed control at 31 g/ha: 31 g ai/ha; for pest or weed control at 125 g/ha: 125 g ai/ha
How it was run: as §1

[10] = test system: barnyardgrass (Echinochloa crus-galli); test: Test A postemergence, barnyardgrass; conditions: Postemergence, 0 to 100 scale, 10 days
How it was run: as §1

[11] = test system: ducksalad (Heteranthera limosa); test: Test B flooded paddy test, ducksalad; conditions: Heteranthera limosa; 250 g ai/ha, Flood; visually evaluated after 10 to 14 days; read-out: Plant response rating, Ducksalad (0 to 100 scale where 0 is no effect and 100 is complete control)
How it was run: as §2

[12] = test system: ragweed (common ragweed, Ambrosia artemisiifolia); test: Test A postemergence, ragweed; conditions: Ambrosia artemisiifolia, post-emergence, 240 h, 10 days, read-out: Plant response rating, Ragweed; for pest or weed control at 31 g/ha: 31 g ai/ha, postemergence, 0 to 100 scale (0 no effect, 100 complete control); for pest or weed control at 125 g/ha: Postemergence, 125 g ai/ha, 0 to 100 scale
How it was run: as §1

[13] = test system: ragweed (common ragweed, Ambrosia artemisiifolia); test: Test A preemergence, ragweed; conditions: Ambrosia artemisiifolia, pre-emergence, 240 h, 0 to 100 scale, 10 days, read-out: Plant response rating, Ragweed; for pest or weed control at 31 g/ha: 31 g ai/ha; for pest or weed control at 125 g/ha: 125 g ai/ha
How it was run: as §1

[14] = postemergence, 0 to 100 scale (0 no effect, 100 complete control)

SMILES | pest or weed control at 31 g/ha ([1]; Postemergence, 0 to 100 scale) | pest or weed control at 125 g/ha ([1]; Postemergence, 0 to 100 scale) | plant injury at 31 g/ha [2] | plant injury at 125 g/ha [2] | plant injury at 250 g/ha (rice (Oryza sativa)) | pest or weed control at 31 g/ha (kochia (Bassia scoparia)) | pest or weed control at 125 g/ha (kochia (Bassia scoparia)) | pest or weed control at 250 g/ha [3] | pest or weed control at 250 g/ha [4] | pest or weed control at 31 g/ha [6] | pest or weed control at 125 g/ha [6] | pest or weed control at 31 g/ha [8] | pest or weed control at 125 g/ha [8] | Corn plant response rating (crop injury, 0 = no effect, 100 = complete kill) at 31 g/ha (corn (Zea mays); Postemergence, 0 to 100 scale) | Corn plant response rating (crop injury, 0 = no effect, 100 = complete kill) at 125 g/ha (corn (Zea mays); Postemergence, 0 to 100 scale) | pest or weed control at 31 g/ha [9] | pest or weed control at 125 g/ha [9] | pest or weed control at 250 g/ha [11] | pest or weed control at 31 g/ha [12] | pest or weed control at 125 g/ha [12] | other results
CC(=O)OCOc1c(Cl)nn(C)c(=O)c1-c1c2ccccc2c(Cl)c2ccccc12 [Compound 11, 5-[(acetyloxy)methoxy]-6-chloro-4-(10-chloro-9-anthracenyl)-2-methyl-3(2H)-pyridazinone] | 40% | 10% | 0% | 0% | 0% | 0% | 50% | 95% | 15% | 100% | 100% | 10% | 70% | 0% | 10% | 0% | 30% | 80% | 100% | 100% | Plant response rating, Barnyardgrass ([5]; 31 g ai/ha, 0 to 100 scale): 20; Plant response rating, Barnyardgrass ([5]; 125 g ai/ha, 0 to 100 scale (0 no effect, 100 complete control)): 30; Plant response rating, Pigweed, Redroot ([7]; 31 g ai/ha, postemergence, 0 to 100 scale (0 no effect, 100 complete control)): 100; Plant response rating, Pigweed, Redroot ([7]; Postemergence, 125 g ai/ha, 0 to 100 scale): 100; Plant response rating, Barnyardgrass ([10]; 31 g ai/ha): 20; Plant response rating, Barnyardgrass ([10]; 125 g ai/ha): 30
Cc1ccc2cc3ccc(C)cc3c(-c3c(OCOC(=O)C(C)(C)C)c(Cl)nn(C)c3=O)c2c1 [Compound 9, [[3-chloro-5-(2,7-dimethyl-9-anthracenyl)-1,6-dihydro-1-methyl-6-oxo-4-pyridazinyl]oxy]methyl 2,2-dimethylpropanoate] | 0% | 0% | 0% | 0% | 0% | 70% | 90% | 100% | 98% | 70% | 100% | 0% | 10% | 0% | 20% | 0% | 0% | 100% | 80% | 100% | pest or weed control at 31 g/ha [13]: 0%; pest or weed control at 125 g/ha [13]: 60%
COC(=O)OCOc1c(Cl)nn(C)c(=O)c1-c1c2cc(C)ccc2cc2ccc(C)cc12 [Compound 8, [[3-chloro-5-(2,7-dimethyl-9-anthracenyl)-1,6-dihydro-1-methyl-6-oxo-4-pyridazinyl]oxy]methyl methyl carbonate] | 0% | 0% | 0% | 0% | 0% | 90% | 100% | 95% | 90% | 100% | 100% | 10% | 10% | 0% | 20% | 0% | 10% | 95% | 100% | 100% | pest or weed control at 31 g/ha [13]: 40%; pest or weed control at 125 g/ha [13]: 100%
COC(=O)OCOc1c(C)nn(C)c(=O)c1-c1c2cc(C)ccc2cc2ccc(F)cc12 [Compound 15, [[5-(2-fluoro-7-methyl-9-anthracenyl)-1,6-dihydro-1,3-dimethyl-6-oxo-4-pyridazinyl]oxy]methyl methyl carbonate] | – | 10% | 0% | 0% | 65% | 100% | 100% | 90% | 50% | 100% | 100% | 100% | 100% | – | 50% | 50% | 100% | 95% | 100% | 100% | pest or weed control at 31 g/ha [1, 14]: 0%; pest or weed control at 31 g/ha [13]: 100%; pest or weed control at 125 g/ha [13]: 100%; Corn plant response rating (crop injury, 0 = no effect, 100 = complete kill) at 31 g/ha (corn (Zea mays); [14]): 0%
